Reference: article PMC6149849, “Cymantrenyl-Nucleobases: Synthesis, Anticancer, Antitrypanosomal and Antimicrobial Activity Studies” (Molecules : A Journal of Synthetic Chemistry and Natural …, 2017)
Read-outs that look alike come from different tables or passages of the source.

Experiments:
SKOV-3 cells = assay: Intracellular ROS, H2DCF-DA fluorescent probe; format: cell-based, human; settings: SKOV-3, 0.5 × IC50, IC50, 2 × IC50
Text: Oxidative stress is a part of the cytotoxic activity of many anticancer agents and the production of reactive oxygen species (ROS) is considered as one of the main molecular mechanisms accompanying chemotherapy, radiotherapy, and photodynamic therapy. Since ROS can act as both oxidants and antioxidants, depending on the conditions, pro- and anti-oxidant therapies have been proposed for the treatment of cancer. So far, both ROS scavenging and ROS boosting anticancer therapies have shown promising results in vitro and in vivo [48]. Using an appropriate fluorescence probe, we measured the amount of ROS in cancer cells that were treated with cymantrene derivatives. […] The greatest increase in ROS was observed after […], with the highest concentration of cymantrene conjugates employed (2 × IC50) (Figure 8). […] As compounds 1, 3, 5, and C were effective in the production ROS, as well as in the induction of apoptosis and autophagy, these processes might contribute together to the cytotoxic action of the molecules.
The intracellular ROS were measured with the oxidation-sensitive fluorescent probes 2′,7′-dichlorodihydrofluorescein diacetate (H2DCF-DA) (Sigma-Aldrich, St. Louis, MO, USA), as described elsewhere. The cell-permeant non-fluorescent dye H2DCF-DA is a reduced form of fluorescein that inside the cell, upon cleavage of the acetate groups by intracellular esterases and oxidation by ROS, is converted into the highly fluorescent product 2′,7′-dichlorofluorescein (DCF) (λex/λem: 498/525 nm). For the assay, 2 × 10^4 cells were seeded into wells of black flat-bottom 96-well microplates a day before the experiment. The next day, test compounds were added at concentrations of 0.5 × IC50, 1 × IC50, and 2 × IC50. […] After 24 h incubation, medium was removed, cell monolayers were washed twice with HBSS and 5 µM H2DCF-DA, dissolved in HBSS, was added to each well. The cells were incubated with the fluorescent probe for 30 min in the dark at 37 °C, and then the fluorescence of produced DCF was monitored over a time period of 0–3 h at 15-min intervals with a microplate reader.

[1] = Determination of log Po/w by chromatographic (RP-HPLC) method, Soczewiński–Wachtmeister relationship; settings: water/methanol, C18, 20 °C
Experimental: In this study, a chromatographic method and the Soczewiński–Wachtmeister relationship were used in order to determine the lipophilicity of the compounds [38, 39, 40, 41]
For the determination of log Po/w values, the newly synthesized compounds were analyzed by an Agilent 1200 system (Agilent Technologies, Santa Clara, CA, USA) equipped with a Zorbax Eclipse XDB column (C18, 250 × 4.6 mm, Agilent Technologies) and controlled by the software ChemStation Data Analysis. The separation was isocratic, and water/methanol (HPLC gradient grade, Sigma-Aldrich, St. Louis, MO, USA) mixtures containing 0.50, 0.55, 0.60, 0.65, 0.70, 0.75, 0.80, 0.85, 0.90 and 0.95 volume fractions of organic modifier were used as the mobile phase. The flow rate was 1.0 mL/min for the 7 and 2 and 0.8 mL/min for other compounds. The chromatographic peaks of test compounds were detected by UV absorbance at 230 nm. The column temperature was kept at 20 °C. The dead-time values were measured from the effluent peaks. All of the runs were performed in triplicate, and the resulting average values were used for the calculation of the retention factors.

[2] = test system: MCF-7/DX (estrogen-responsive breast adenocarcinoma resistant to doxorubicin); assay: cells; format: cell-based, human
Experimental: The inhibitory effect of cymantrene derivatives on cell proliferation and growth was determined based on survival curves and was expressed as IC50 values (concentration required to achieve a 50% decrease in cell viability when compared to the viability of untreated control cells) calculated using GraphPad Prism 4.02 software for Windows (GraphPad Software, San Diego, CA, USA). Cell viability was determined by the MTT microplate spectrophotometric cytotoxicity test.
Anticancer activity of cymantrene derivetives were determined on the basis of their cytotoxic effects on a panel of human cancer cells, as derived from different types of solid tumors: estrogen responsive breast adenocarcinoma (MCF-7), triple negative breast adenocarcinoma (MDA-MB-231), ovarian adenocarcinoma (SKOV-3), non-small cell lung carcinoma (A549), hepatocellular carcinoma (HepG2), and glioblastoma (U-87 MG).
Cells were grown as a monolayer in DMEM growth medium, supplemented with 10% FBS, penicillin (10 U/mL) and streptomycin (50 μg/mL), under standard conditions (37 °C, 5% CO2 and 95% air, 100% humidity) and periodically checked for Mycoplasma contamination.
The cytotoxicity of cymantrene derivatives was evaluated by the MTT microplate methods as described elsewhere [67] by incubating the cells with increasing concentrations of tested compounds for 24 h. Briefly, 0.1 mL of logarithmically growing cells were seeded in a 96-well microplate (5 × 10^4 cells/well) a day before the experiments and after 24 h of culture, tested compounds, dissolved in DMSO, and diluted in culture medium, were added. […] After further incubation for 24 h, the medium was replaced with fresh medium and the cells were allowed to grow for additional 48 h. Then, the medium was aspirated and 0.05 mL of MTT (final concentration of 5 mg/mL medium) added to each well, and the cells were incubated for further 4 h. The absorbance of the product, resulting from the MTT reduction, was read with a microplate reader at 545 nm. The percentage of viable cells was calculated by comparing the absorbance of treated cells with that of the untreated control cells (taken as 100%). The IC50 concentration of each compound was calculated from the cell survival curves using GraphPad Prism 4.02 software for Windows (GraphPad Software, San Diego, CA, USA).

[3] = test system: bloodstream forms of T. brucei clone 427-221a; settings: cited from earlier work
[4] = test system: Clinical S. epidermidis (MSSA) 37/12; assay: Antibacterial liquid microdilution, clinical isolate; format: cell-based, Staphylococcus epidermidis
Experimental: (§1) This lack of activity against E. coli can be probably explained by an impeded cellular uptake of the compounds through the Gram-negative cell wall that consists of two layers and effective protein efflux pump systems. The antibacterial activities of 1 and C were further tested against four clinical isolates of S. aureus and two clinical isolates of S. epidermidis (Table 4).
(§2) The antibacterial activity of CymH, 1–7 and C and the reference drugs penicillin G and polymyxin B was tested by the liquid microdilution method under standard conditions using twofold dilution series, as described in the Clinical and Laboratory Standards Institute (CLSI), reference method M07-A8, and expressed as minimal inhibitory concentration (MIC) values. A panel of Gram-positive bacterial strains, S. aureus ATCC® 29213 (sensitive to methicillin, (MSSA)), S. aureus ATCC® 43300 (resistant to methicillin, (MRSA)), S. aureus ATCC 700787™ (intermediate to vancomycin, (VISA)), and S. epidermidis ATCC 12228™, and one Gram-negative, strain E. coli ATCC BAA-198™ (ESBL) were used. In addition, four clinical isolates of S. aureus (MSSA and MRSA) and two clinical isolates of S. epidermidis that were collected from different patients at the Medical University of Warsaw, Poland, were also tested. The bacterial cells were cultivated on tryptic soy agar (TSA) and nutrient agar (NA), according to ATCC recommendations. All of the strains were incubated at 37 °C. Tested compounds were dissolved in DMSO and then serially diluted twofold with cation-adjusted Mueller-Hinton broth (CAMHB). Then, 95 µL of the dilutions were dispensed into microdilution sterile plates (Mar-Four), followed by the addition of 5 µL of bacteria inoculum containing 5 × 10^4 CFU/mL. The final concentrations of the compounds ranged from 512 to 2 µg/mL. Each compound was tested in triplicate, and Penicillin G (8–0.15 µg/mL) and Polymyxin B (256–0.0625 µg/mL) were used as controls. The plates were incubated at 37 °C for 18 to 24 h depending on the bacterial strain. Thereafter, the absorbance was measured at λ = 540 nm and λ = 595 nm using a Spectrostar Omega microplate reader (BMG Labtech, Offenburg, Germany). The MIC value was defined as the lowest concentration of a compound that reduced the growth by 100%.

[5] = test system: Clinical S. epidermidis (MSSA) 43/12; assay: as above; format: cell-based, Staphylococcus epidermidis
Experimental: as §1, §2

[6] = test system: Clinical S. aureus (MRSA) 44/12; assay: as above; format: cell-based, Staphylococcus aureus
Experimental: as §1, §2

[7] = test system: Clinical S. aureus (MSSA) 30/11; assay: as above; format: cell-based, Staphylococcus aureus
Experimental: as §1, §2

[8] = test system: Clinical S. aureus (MRSA) 31/12; assay: as above; format: cell-based, Staphylococcus aureus
Experimental: as §1, §2

[9] = test system: Clinical S. aureus (MSSA) 26/11; assay: as above; format: cell-based, Staphylococcus aureus
Experimental: as §1, §2

S. aureus ATCC 25923 = assay: Effect on bacterial morphology (SEM) with MIC and MBC; format: cell-based, Staphylococcus aureus
Experimental: In order to elucidate the bactericidal mechanism of action of cymantrenes, the effect of compound 1 on the morphology of S. aureus ATCC 25923 was exemplary studied by scanning electron microscopy (SEM) (Figure 9).
The effect of compound 1 on bacterial morphology was studied by SEM, as previously described. Briefly, samples of S. aureus ATCC 25923 (10^5 CFU/mL) were centrifuged (600× g, 5 min) and resuspended in growth medium containing compound 1 at concentration of 48 or 64 µg/mL. After incubation for 24 h at 37 °C, the cells were washed twice with PBS (0.1 × PBS), fixed with 2.5% glutaraldehyde (overnight), filtered (0.2 μm, pore size cutoff), and subsequently dehydrated in a series of ethanol washes (30%, 50%, 70%, 80%, 90% and 100%; twice for 15 min). The solvent was then evaporated and the samples were coated with a thin layer of platinum (15 nm). SEM images were recorded using a SEM Inspect F50 (FEI Co., Eindhoven, The Netherlands) at an energy range of 10–15 keV.

[10] = 24 h incubation, MTT, means ± SEM, read-out: cytotoxicity IC50, MCF-7/DX

SMILES	generated intracellular ROS (SKOV-3 cells)	Log Po/w [1]	IC50 [2, 10]	MIC, Clinical S. epidermidis (MSSA) 37/12 [4]	MIC, Clinical S. epidermidis (MSSA) 43/12 [5]	MIC, Clinical S. aureus (MRSA) 44/12 [6]	MIC, Clinical S. aureus (MSSA) 30/11 [7]	MIC, Clinical S. aureus (MRSA) 31/12 [8]	MIC, Clinical S. aureus (MSSA) 26/11 [9]	also measured
O=c1[nH]c(=O)n(CCC(O)[C]23[CH]4[CH]5[CH]6[CH]2[Mn]5643[P](c2ccccc2)(c2ccccc2)c2ccccc2)cc1F.[C-]#[O+].[C-]#[O+] (racemic) [Compound 3]	generated the largest amounts of ROS	5.2	39.9 ± 1.41 µM	–	–	–	–	–	–	–
Nc1ncnc2c1ncn2CCC(O)[C]12[CH]3[CH]4[CH]5[CH]1[Mn]4532[P](c1ccccc1)(c1ccccc1)c1ccccc1.[C-]#[O+].[C-]#[O+] (racemic) [Compound 5]	generated the largest amounts of ROS	4.8	–	–	–	–	–	–	–	–
Nc1ncnc2c1ncn2CCC(O)[C]12[CH]3[CH]4[CH]5[CH]1[Mn]45321[P](c2ccccc2)(c2ccccc2)CC[P]1(c1ccccc1)c1ccccc1.[C-]#[O+] (racemic) [Compound C]	generated the largest amounts of ROS	–	–	16 µg/mL	16 µg/mL	32 µg/mL	32 µg/mL	32 µg/mL	32 µg/mL	MIC and GI50 ratios of cytotoxic to trypanocidal activities ([3]; HL-60 / T. brucei): 7–13; Selectivity GI50 Ratio ([3]; HL-60 / T. brucei): 13.1; Selectivity MIC Ratio ([3]; HL-60 / T. brucei): 10; GI50 [3]: 1670 ± 370 nM; T. brucei MIC [3]: 10 µM
O=C(CCn1cc(F)c(=O)[nH]c1=O)[C]12[CH]3[CH]4[CH]5[CH]1[Mn]4532.[C-]#[O+].[C-]#[O+].[C-]#[O+] (stereo not drawn) [Compound 1]	generated the largest amounts of ROS	–	–	4 µg/mL	8 µg/mL	32 µg/mL	64 µg/mL	64 µg/mL	32 µg/mL	MIC, S. aureus ATCC 25923 (S. aureus ATCC 25923): 32 µg/mL; minimal bactericidal concentration; MBC, S. aureus ATCC 25923 (S. aureus ATCC 25923): 128 µg/mL; bacterial morphology by SEM (S. aureus ATCC 25923; 48 µg/mL and 64 µg/mL, 24 h): severe morphological alterations in cell dimensions and structure, as well as the disruption of the outer envelope; IC50 [2]: 137 ± 3.41 µM
O=[C]=[Mn](=[C]=O)(=[C]=O)[CH]1C=CC=C1 [CymH, tricarbonyl(η^5-cyclopentadienyl)manganese, reference compound]	–	3.5	144 ± 2.24 µM	–	–	–	–	–	–	–
